Results from patent US20070092551A1, “Therapeutic agent” (TAKARA BIO INC., priority 2003, published 2007).

Experiments:
Assay type in all cases: cell-based
[1] = test system: mature adipocytes which were induced to be differentiated by xanthoangelol; assay: Glucose uptake into adipocytes induced to be differentiated by xanthoangelol; details: stimulation with insulin 1 μg/mL; adipocytes differentiated with xanthoangelol 10 μM
Method: Adipocytes which were induced to be differentiated by xanthoangelol were obtained, and thereafter it was confirmed on whether the glucose uptake into the adipocytes is enhanced by stimulation with insulin or 4-hydroxyderricin.
Specifically, as a sample, there was set a group with addition of a dimethyl sulfoxide solution of xanthoangelol having a final concentration of 10 μM. Thereafter, the medium and the sample were exchanged in the same manner as in the method described in Example 82 except that 3-isobutyl-1-methylxanthine having a final concentration of 0.5 mM was added concurrently with the addition of dexamethasone, to give mature adipocytes which were induced to be differentiated by xanthoangelol.
Next, the amount of 2-deoxyglucose uptake into the mature adipocytes during the stimulation with insulin or 4-hydroxyderricin in the resulting mature adipocytes was determined in the same manner as in the method described in Example 83.
Specifically, there were set the group without the addition and the group with addition of insulin having a final concentration of 1 μg/mL or 4-hydroxyderricin having a final concentration of 20 μM. Thereafter, the amount of 2-deoxy-[1,2-^3H(N)]-glucose uptake into the adipocytes was determined in the same manner.

[2] = test system: insulin-resistant mature adipocytes; assay: Enhancing action on glucose uptake into insulin-resistant (TNF-α treated) mature adipocytes; details: group treated with insulin; mature adipocytes treated with mouse-derived TNF-α 10 or 20 ng/mL
Method: It is said that tumor necrosis factor a (TNF-α) is deeply involved in insulin resistance, and it has been known that a signal from an insulin receptor is inhibited by treating mature adipocytes with TNF-α, so that a reaction of glucose uptake is inhibited by insulin stimulation (Proc. Natl. Acad. Sci. USA, vol. 91, p 4854-4858 (1994)). The enhancing action by 4-hydroxyderricin on glucose uptake into mature adipocytes in which insulin resistance was induced by TNF-α was evaluated.
The induction of differentiation into mature adipocytes was carried out in the same manner as in the method described in Example 83, except that after preparation of the mature adipocytes, in order to induce insulin resistance in these mature adipocytes, mouse-derived TNF-α (manufactured by Cosmobio, 3410) was added to the medium so as to have a final concentration of 10 ng/mL or 20 ng/mL, and the adipocytes were cultured for additional 2 days. […]
The enhancing action on glucose uptake was evaluated in the same manner as in the method described in Example 83. For each of the cells prepared in item (1) of Example 95 mentioned above, there were set a group containing 4-hydroxyderricin at a final concentration of 30 μM, a group without addition of the sample as a negative control, and a group with treatment with insulin, and the radioactivity of each group was determined. […]

[3] = test system: mature adipocytes (3T3-L1 cells); assay: Glucose uptake enhancement inhibited by cytochalasin B; details: cytochalasin B 40 μM added to the 4-hydroxyderricin 7.8 μM, insulin 1 μg/mL and negative control groups
Method: The influence of cytochalasin B on 2-deoxyglucose uptake into matured adipocytes during the stimulation with the sample in the adipocytes was tested in accordance with the method shown in Example 83 on whether or not the enhancing action of 4-hydroxyderricin on glucose uptake shown in Example 83 is inhibited by cytochalasin B, which is an inhibitor of a glucose transporter.
Specifically, as a sample, a group with addition of a dimethyl sulfoxide solution of 4-hydroxyderricin so as to have a final concentration of 7.8 μM was set. Here, there were set a group without addition of the sample as a negative control and a group with addition of insulin so as to have a final concentration of 1 μg/mL as a positive control. Furthermore, there was set a group with addition of cytochalasin B (manufactured by nacalai tesque, 10435-81) to each group so as to have a final concentration of 40 μM in the same time as the time of addition of insulin. Thereafter, 2-deoxy-[1,2-^3H(N)]-glucose subjected to uptake into the adipocytes was determined in the same manner.

3T3-L1 cells = assay: Induction of adipocyte differentiation (amount of triglyceride biosynthesis); details: Mus musculus, 3T3-L1, X=(S−N)/(P−N) of amount of triglyceride, P=insulin positive control, read-out: Action for Induction of Differentiation
Method in brief: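 Differentiation scored as X=(S−N)/(P−N), ranked +++, ++, +, +/−, where S, N and P are triglyceride with compound, DMSO and insulin; triglyceride was extracted with hexane:isopropanol (3:2) and assayed twice. Compound was added after 7 days' growth, first with 0.25 μM dexamethasone (45 h), then for 7 days.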

[4] = biological target: T1, fusion protein of an yeast GAL4 DNA-binding domain and a human PPARγ ligand-binding site (Homo sapiens, UniProt P37231); assay: PPARγ activation reporter assay in CV-1 cells; details: test compound 10 μM, pFA-CMV (PPARγ), 24 hours
T1 construct: expressed in transfected cells; host or cells: CV-1 cells
T1 sequence (P37231 204-505): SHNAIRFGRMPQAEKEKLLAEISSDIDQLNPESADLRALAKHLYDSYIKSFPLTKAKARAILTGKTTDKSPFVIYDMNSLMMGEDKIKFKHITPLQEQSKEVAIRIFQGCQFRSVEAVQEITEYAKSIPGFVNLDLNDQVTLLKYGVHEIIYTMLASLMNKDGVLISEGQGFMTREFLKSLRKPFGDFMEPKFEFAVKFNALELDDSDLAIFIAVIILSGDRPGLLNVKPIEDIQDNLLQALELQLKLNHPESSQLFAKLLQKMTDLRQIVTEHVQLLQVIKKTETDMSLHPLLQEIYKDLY
Method: The activation ability for PPARγ was determined by a reporter assay using a fusion protein of an yeast GAL4 DNA-binding domain and a human PPARγ ligand-binding site.
A plasmid (pGAL4/GL3-Promoter) was prepared by repeating five times insertion of a binding site (UASg) of GAL4 into a multicloning site of a pGL3-Promoter vector (Promega). In addition, a ligand-binding site (amino acid sequence 204 to 505) of the PPARγ gene was cloned from a human liver cDNA library (manufactured by TAKARA BIO INC.) by a polymerase chain reaction, and the ligand-binding site was inserted into a multicloning site of a pFA-CMV plasmid vector ([…]) to give pFA-CMV (PPARγ).
Escherichia coli JM-109 strain was transformed with each of the two kinds of the plasmids obtained by the above-mentioned procedures, and pFA-CMV and pRL-TK (Promega) according to a conventional method. Each of the Escherichia coli cells was cultured with shaking at 37° C. for 18 hours in an LB medium containing 100 μg/mL ampicillin. Thereafter, the plasmids of each were purified according to the procedure manual of QIAfilter Plasmid midi Kit (QIAGEN).
CV-1 cells were seeded in a 24-well plate so as to have a density of 4×10^4 cells per well. Thereafter, the cells were cultured in a Dulbecco's modified Eagle's medium (manufactured by Sigma, D5796) containing 10% fetal bovine serine (manufactured by Bio Whittaker) for 24 hours under the conditions of 37° C. and 5% CO2. Thereafter, in accordance with the procedure manual of LipofectAmine 2000 (Invitrogen), the gene transfer was carried out into the CV-1 cells with 200 ng of pFA-CMV (PPARγ) or pFA-CMV, 400 ng of pGAL4/GL3-promoter, and 200 ng of pRL-TK per well, and thereafter the cells were cultured for 24 hours under the conditions of 37° C. and 5% CO2. Thereafter, the medium was exchanged with a Dulbecco's modified Eagle's medium to which a test compound dissolved in dimethyl sulfoxide was previously added so as to have a final concentration of 10 μM. Thereafter, the cells were cultured for additional 24 hours. In addition, there were set a group with addition of dimethyl sulfoxide in place of a test compound as a negative control, and a group with addition of troglytazone (manufactured by Calbiochem) so as to have a final concentration of 3 μM as a positive control. The cells were washed with a phosphate buffered saline, and 5× PassiveLysisBuffer (Promega) which was previously diluted in 5-folds with distilled water was added thereto in an amount of 100 μL per well. The mixture was shaken at room temperature for 15 minutes to lyse cells. Twenty microliters of this lysed solution was applied in accordance with the procedure manual of Dual Luciferase Assay System (Promega), and a fluorescent luciferase emission intensity and a Renilla mullerei luciferase emission intensity were measured using Mithras-LB940 (BERTHOLD TECHNOLOGIES GmbH). The enhancing action for transcriptional activation of each test compound was shown as a relative value obtained by calculating a ratio of the fluorescent luciferase emission intensity to the Renilla mullerei luciferase emission intensity, wherein the value of the group with addition of the negative control is defined as 1.

“insulin: insulin (manufactured by TAKARA BIO INC.), positive control” was tested, and the “2-deoxy-[1,2-3H(N)]-glucose uptake” value [1] was “enhancement of 2-deoxy-[1,2-^3H(N)]-glucose uptake” and the “enhancing action on glucose uptake, increase without TNF-α defined as 100%” value [2] was “around 40%”.
For C=C1[C@@H](C)[C@H]2[C@H](Cc3ccccc3)NC(=O)[C@]23OC(=O)/C=C/[C@H](O)CCC[C@@H](C)C/C=C/[C@H]3[C@@H]1O [cytochalasin B, reference compound], the “2-deoxy-[1,2-3H(N)]-glucose uptake on addition of cytochalasin B” value [3] was “almost completely inhibited”.
COc1cc(O)c(CC=C(C)C)c(O)c1C(=O)/C=C/c1ccc(O)cc1 [Xanthohumol, 4,2′,4′-trihydroxy-3′-prenyl-6′-methoxychalcone] was tested, and the activation at 4 µM (3T3-L1 cells; 4 μM) was 15 to 30%, the activation at 13 µM (3T3-L1 cells; 13 μM) was 30 to 60% and the “enhancing action for transcriptional activation (PPARγ)” value [4] was “no enhancing action for transcriptional activation was found”.
